Active and inactive are the calls of the source. The rule behind the calls is not given here.
What was measured:
B16-F10 [1] = assay: Cytotoxicity against mouse B16-F10 cells assessed as reduction in cell viability at 5.5 uM incubated for 24 hrs by alamarblue staining based assay relative to control; assay type: functional
[2] = Toxicity in C57BL/6 mouse implanted with mouse B16-F10 cells assessed as kidney damage at 4.6 to 42 mg/kg, ip by H and E staining based analysis; assay type: organism-based; conditions: in vivo, dose 4.6-42 mg/kg
B16-F10 [3] = assay: Induction of apoptosis in mouse B16-F10 cells assessed as early apoptotic cells at 10 uM measured after 48 hrs by Annexin V-FITC/7-AAD staining based flow cytometric analysis relative to control; assay type: functional
B16-F10 [4] = assay: Induction of apoptosis in mouse B16-F10 cells assessed as necrotic cells at 10 uM measured after 48 hrs by Annexin V-FITC/7-AAD staining based flow cytometric analysis relative to control; assay type: functional
B16-F10 [5] = assay: Cytotoxicity against mouse B16-F10 cells assessed as reduction in cell viability at 0.2 to 1.5 uM incubated for 24 hrs by alamarblue staining based assay relative to control; assay type: functional; conditions: dose 0.2-1.5 µM
CT26 = assay: Cytotoxicity against mouse CT26 cells assessed as cell survival incubated for 24 hrs by alamarblue staining based analysis; assay type: functional; conditions: CT26, 24 h
[6] = Toxicity in C57BL/6 mouse implanted with mouse B16-F10 cells assessed as spleen damage at 9 to 9.5 mg/kg, ip by H and E staining based analysis; assay type: organism-based; conditions: in vivo, dose 9-9.5 mg/kg
B16-F10 [7] = assay: Cytotoxicity against mouse B16-F10 cells assessed as cell death by measuring increase in red fluorescence at 0.5 to 10 uM by calcein AM/PI staining based confocal laser scanning microscopy analysis; assay type: functional; conditions: dose 0.5-10 µM
B16-F10 [8] = assay: Induction of apoptosis in mouse B16-F10 cells assessed as late apoptotic cells at 15 uM measured after 48 hrs by Annexin V-FITC/7-AAD staining based flow cytometric analysis relative to control; assay type: functional
B16-F10 [9] = assay: Cytotoxicity against mouse B16-F10 cells assessed as inhibition of cell growth incubated for 24 hrs by alamarblue staining based assay; assay type: functional; conditions: dose 0.28-55 µM
[10] = Toxicity in C57BL/6 mouse implanted with mouse B16-F10 cells assessed as liver damage at 9 to 9.5 mg/kg, ip by H and E staining based analysis; assay type: organism-based; conditions: in vivo, dose 9-9.5 mg/kg
B16-F10 [11] = assay: Cytotoxicity against mouse B16-F10 cells assessed as reduction in cell viability at 8.3 uM incubated for 24 hrs by alamarblue staining based assay relative to control; assay type: functional
B16-F10 [12] = assay: Cytotoxicity against mouse B16-F10 cells assessed as reduction in cell viability at 1.5 uM incubated for 24 hrs by alamarblue staining based assay relative to control; assay type: functional
B16-F10 [13] = assay: Cytotoxicity against mouse B16-F10 cells assessed as reduction in cell viability at 8.31 uM incubated for 24 hrs by alamarblue staining based assay relative to control; assay type: functional

| SMILES | Activity (B16-F10 [1]) | Activity [2] | Activity (B16-F10 [3]) | Activity (B16-F10 [4]) | Activity (B16-F10 [5]) | IC50 (CT26) | Activity [6] | Activity (B16-F10 [7]) | Activity (B16-F10 [8]) | Activity (B16-F10 [9]) | Activity [10] | Activity (B16-F10 [11]) | Activity (B16-F10 [12]) | Activity (B16-F10 [13]) |
| --- | --- | --- | --- | --- | --- | --- | --- | --- | --- | --- | --- | --- | --- | --- |
| COc1ccc(C(=O)/C=C2\C(=O)C(C#N)=C3NC(=O)c4c(sc5c4CCCCC5)N32)cc1 | 20% | Non-Toxic | 0.5% | 10.7% | 90% | 9.3 µM | Non-Toxic | Active | 91.7% | Dose-Dependent Effect | Non-Toxic |  |  |  |
| CCOC(=O)c1c(N2C(N)=C(C#N)C(=O)/C2=C\C(=O)c2ccc(C)cc2)sc2c1CCCCC2 | 20% | Non-Toxic | 1.5% | 21.8% | 40% | 7.4 µM | Non-Toxic | Active | 96.1% | Dose-Dependent Effect | Non-Toxic | 48% |  |  |
| CCOC(=O)c1c(NC(=C\C(=O)c2ccc(OC)cc2)/C([O-])=C(\C#N)C(N)=O)sc2c1CCCC2.[K+] |  | Non-Toxic | 0.3% | 14% |  | 4.3 µM | Non-Toxic | Active | 94.3% | Dose-Dependent Effect | Non-Toxic |  | ~80% | 20% |

Reference: ChEMBL document CHEMBL5325431, “Synthesis of thieno[3,2-e]pyrrolo[1,2-a]pyrimidine derivatives and their precursors containing 2-aminothiophenes fragments as anticancer agents for therapy of pulmonary metastatic melanoma” (Eur J Med Chem, 2023)
